What was measured:
IDO1 [1] = molecular target: T1, IDO1 (Homo sapiens, UniProt P14902); experiment: IDO1 Human Whole blood Assay; type: cell-based; design: Human whole blood was drawn in sodium heparin coated tubes from healthy internal donors; from tissue; host or cells: human whole blood from healthy donors, stimulated with LPS and IFNγ; conditions: LPS and IFNγ stimulated, 18 h, read-out: Human Whole Blood Potency, IC50
Method in brief: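 Heparinized healthy-donor human whole blood was preincubated 15 min with compound, then stimulated with LPS and IFNγ (100 ng/mL final) for 18 h at 37 °C. Plasma kynurenine was quantified by LC/MS/MS against a D6-kynurenine internal standard, and IC50s came from 4-parameter sigmoidal fits.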

IDO1 [2] = molecular target: T1, IDO1; experiment: IDO1 Cellular Assay in HeLa Cells Stimulated with IFNγ; type: cell-based; conditions: read-out: HeLa Cell Potency, IC50

T1 sequence (P14902 whole entry): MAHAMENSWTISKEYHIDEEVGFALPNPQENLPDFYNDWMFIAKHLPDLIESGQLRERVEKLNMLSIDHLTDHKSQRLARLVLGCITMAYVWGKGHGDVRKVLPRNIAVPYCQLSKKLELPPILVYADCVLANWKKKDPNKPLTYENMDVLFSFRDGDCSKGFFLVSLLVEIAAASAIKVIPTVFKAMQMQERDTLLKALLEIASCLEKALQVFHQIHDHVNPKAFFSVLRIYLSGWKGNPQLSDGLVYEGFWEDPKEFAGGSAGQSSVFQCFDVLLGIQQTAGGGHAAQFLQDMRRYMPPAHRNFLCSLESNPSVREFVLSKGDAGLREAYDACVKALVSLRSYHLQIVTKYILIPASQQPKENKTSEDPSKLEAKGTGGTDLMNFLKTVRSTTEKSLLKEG

SMILES | IC50 (IDO1 [1]) [nM] | IC50 (IDO1 [2]) [nM]
Cc1c(F)ccc(N2CCN(C(=O)Cn3nc(C(=O)N4CCN(C(=O)CO)CC4)c4c3C[C@H]3C[C@@H]43)C3(CC3)C2)c1C [Example 319, 1-[7-(4-fluoro-2,3-dimethylphenyl)-4,7-diazaspiro[2.5]octan-4-yl]-2-{(3bR,4aR)-3-[4-(hydroxyacetyl)piperazine-1-carbonyl]-3b,4,4a,5-tetrahydro-1H-cyclopropa[3,4]cyclopenta[1,2-c]pyrazol-1-yl}ethan-1-one] | 452 | 1.31
Cc1c(F)ccc(N2CCN(C(=O)Cn3nc(C(=O)N4CCC(OCCO)CC4)c4c3C[C@H]3C[C@@H]43)C3(CC3)C2)c1C [Example 321, 1-[7-(4-fluoro-2,3-dimethylphenyl)-4,7-diazaspiro[2.5]octan-4-yl]-2-{(3bR,4aR)-3-[4-(2-hydroxyethoxy)piperidine-1-carbonyl]-3b,4,4a,5-tetrahydro-1H-cyclopropa[3,4]cyclopenta[1,2-c]pyrazol-1-yl}ethan-1-one] | 508 | 1.47
Cc1c(F)ccc(N2CCN(C(=O)Cn3nc(C(=O)N4CCN(CC(N)=O)CC4)c4c3C[C@H]3C[C@@H]43)C3(CC3)C2)c1C [Example 322, 2-{4-[(3bR,4aR)-1-{2-[7-(4-fluoro-2,3-dimethylphenyl)-4,7-diazaspiro[2.5]octan-4-yl]-2-oxoethyl}-3b,4,4a,5-tetrahydro-1H-cyclopropa[3,4]cyclopenta[1,2-c]pyrazole-3-carbonyl]piperazin-1-yl}acetamide] | 1050 | 1.6
Cc1c(F)ccc(N2CCN(C(=O)Cn3nc(C(=O)N4CCC(O)(CO)CC4)c4c3C[C@H]3C[C@@H]43)C3(CC3)C2)c1C [Example 323, 1-[7-(4-fluoro-2,3-dimethylphenyl)-4,7-diazaspiro[2.5]octan-4-yl]-2-{(3bR,4aR)-3-[4-hydroxy-4-(hydroxymethyl)piperidine-1-carbonyl]-3b,4,4a,5-tetrahydro-1H-cyclopropa[3,4]cyclopenta[1,2-c]pyrazol-1-yl}ethan-1-one] | 1800 | 0.69
Cc1cccc(N2CCN(C(=O)Cn3nc(C(=O)N4CCC(O)C(F)C4)c4c3CCC4)C3(CC3)C2)c1C (stereo not shown) [Example 325, 1-[7-(2,3-dimethylphenyl)-4,7-diazaspiro[2.5]octan-4-yl]-2-[3-(3-fluoro-4-hydroxy-piperidine-1-carbonyl)-5,6-dihydro-4H-cyclopenta[c]pyrazol-1-yl]ethanone] | 625 | 4.08
Cc1cccc(N2CCN(C(=O)Cn3nc(C(=O)N4CC[C@H](O)[C@H](F)C4)c4c3C[C@H]3C[C@@H]43)C(C)(C)C2)c1C [Example 331, 1-[4-(2,3-dimethylphenyl)-2,2-dimethylpiperazin-1-yl]-2-{(3bR,4aR)-3-[(3R,4S)-3-fluoro-4-hydroxypiperidine-1-carbonyl]-3b,4,4a,5-tetrahydro-1H-cyclopropa[3,4]cyclopenta[1,2-c]pyrazol-1-yl}ethan-1-one] | 9120 | 84.5
Cc1cccc(N2CCN(C(=O)Cn3nc(C(=O)N4CCC(O)(CF)CC4)c4c3C[C@H]3C[C@@H]43)C(C)(C)C2)c1C [Example 332, 1-[4-(2,3-dimethylphenyl)-2,2-dimethylpiperazin-1-yl]-2-{(3bR,4aR)-3-[4-(fluoromethyl)-4-hydroxypiperidine-1-carbonyl]-3b,4,4a,5-tetrahydro-1H-cyclopropa[3,4]cyclopenta[1,2-c]pyrazol-1-yl}ethan-1-one] | 9490 | 70
Cc1cccc(N2CCN(C(=O)Cn3nc(C(=O)N4CCC5(CO)CC4C5)c4c3C[C@H]3C[C@@H]43)C(C)(C)C2)c1C [Example 333, 1-[4-(2,3-dimethylphenyl)-2,2-dimethylpiperazin-1-yl]-2-{(3bR,4aR)-3-[5-(hydroxymethyl)-2-azabicyclo[3.1.1]heptane-2-carbonyl]-3b,4,4a,5-tetrahydro-1H-cyclopropa[3,4]cyclopenta[1,2-c]pyrazol-1-yl}ethan-1-one] | > 10000 | 8.73
Cc1cccc(N2CCN(C(=O)Cn3nc(C(=O)N4CCC(O)CC4)c4c3C[C@H]3C[C@@H]43)[C@@H](C)C2)c1C [Example 334, 1-[(2S)-4-(2,3-dimethylphenyl)-2-methylpiperazin-1-yl]-2-[(3bR,4aR)-3-(4-hydroxypiperidine-1-carbonyl)-3b,4,4a,5-tetrahydro-1H-cyclopropa[3,4]cyclopenta[1,2-c]pyrazol-1-yl]ethan-1-one] | 4070 | 1.38
Cc1cccc(N2CCN(C(=O)Cn3nc(C(=O)N4CCC(O)CC4)c4c3C[C@H]3C[C@@H]43)[C@H](C)C2)c1C [Example 335, 1-[(2R)-4-(2,3-dimethylphenyl)-2-methylpiperazin-1-yl]-2-[(3bR,4aR)-3-(4-hydroxypiperidine-1-carbonyl)-3b,4,4a,5-tetrahydro-1H-cyclopropa[3,4]cyclopenta[1,2-c]pyrazol-1-yl]ethan-1-one] | 587 | 2.75
Cc1cccc(N2CCN(C(=O)Cn3nc(C(=O)N4CCN(C(=O)CO)CC4)c4c3C[C@H]3C[C@@H]43)C3(CC3)C2)c1C [Example 355, 1-(4-((3bR,4aR)-1-(2-(7-(2,3-dimethylphenyl)-4,7-diazaspiro[2.5]octan-4-yl)-2-oxoethyl)-3b,4,4a,5-tetrahydro-1H-cyclopropa[3,4]cyclopenta[1,2-c]pyrazole-3-carbonyl)piperazin-1-yl)-2-hydroxyethanone] | 829 | 0.94
Cc1cccc(N2CCN(C(=O)Cn3nc(C(=O)N4CCC(O)CC4)c4c3C[C@H]3C[C@@H]43)C3(CC3)C2)c1C [Example 357, 1-(7-(2,3-dimethylphenyl)-4,7-diazaspiro[2.5]octan-4-yl)-2-((3bR,4aR)-3-(4-hydroxypiperidine-1-carbonyl)-3b,4,4a,5-tetrahydro-1H-cyclopropa[3,4]cyclopenta[1,2-c]pyrazol-1-yl)ethanone] | 1870 | 0.89
Cc1cccc(N2CCN(C(=O)Cn3nc(C(=O)N4CCO[C@@H](CO)C4)c4c3C[C@H]3C[C@@H]43)C3(CC3)C2)c1C [Example 360, 1-(7-(2,3-dimethylphenyl)-4,7-diazaspiro[2.5]octan-4-yl)-2-((3bR,4aR)-3-((R)-2-(hydroxymethyl)morpholine-4-carbonyl)-3b,4,4a,5-tetrahydro-1H-cyclopropa[3,4]cyclopenta[1,2-c]pyrazol-1-yl)ethanone] | 3870 | 1.17

The next compounds have a lower IC50 (IDO1 [1]) than those just listed; values first:

IC50 (IDO1 [1]) [nM] | IC50 (IDO1 [2]) [nM] | SMILES
347 | 1.31 | CC(=O)NC1CCN(C(=O)c2nn(CC(=O)N3CCN(c4ccc(F)c(C)c4C)CC34CC4)c3c2[C@@H]2C[C@@H]2C3)CC1 [Example 320, N-{1-[(3bR,4aR)-1-{2-[7-(4-fluoro-2,3-dimethylphenyl)-4,7-diazaspiro[2.5]octan-4-yl]-2-oxoethyl}-3b,4,4a,5-tetrahydro-1H-cyclopropa[3,4]cyclopenta[1,2-c]pyrazole-3-carbonyl]piperidin-4-yl}acetamide]
335 | 0.8 | Cc1cccc(N2CCN(C(=O)Cn3nc(C(=O)N4CCC(F)(CO)CC4)c4c3C[C@H]3C[C@@H]43)C3(CC3)C2)c1C [Example 362, 1-(7-(2,3-dimethylphenyl)-4,7-diazaspiro[2.5]octan-4-yl)-2-((3bR,4aR)-3-(4-fluoro-4-(hydroxymethyl)piperidine-1-carbonyl)-3b,4,4a,5-tetrahydro-1H-cyclopropa[3,4]cyclopenta[1,2-c]pyrazol-1-yl)ethanone]
272 | 3.21 | Cc1c(Cl)cccc1N1CCN(C(=O)Cn2nc(C(=O)N3CC[C@H](N)[C@@H](F)C3)c3c2C[C@H]2C[C@@H]32)C2(CC2)C1 [Example 315, 2-{(3bR,4aR)-3-[(3S,4S)-4-amino-3-fluoropiperidine-1-carbonyl]-3b,4,4a,5-tetrahydro-1H-cyclopropa[3,4]cyclopenta[1,2-c]pyrazol-1-yl}-1-[7-(3-chloro-2-methylphenyl)-4,7-diazaspiro[2.5]octan-4-yl]ethan-1-one]
229 | 1.81 | Cc1c(N2CCN(C(=O)Cn3nc(C(=O)N4CC[C@@H](O)[C@@H](F)C4)c4c3C[C@H]3C[C@@H]43)CC2)cccc1C(F)(F)F [Example 339, 2-((3bR,4aR)-3-((3S,4R)-3-fluoro-4-hydroxypiperidine-1-carbonyl)-3b,4,4a,5-tetrahydro-1H-cyclopropa[3,4]cyclopenta[1,2-c]pyrazol-1-yl)-1-(4-(2-methyl-3-(trifluoromethyl)phenyl)piperazin-1-yl)ethanone]
205 | 1.65 | Cc1c(F)ccc(N2CCN(C(=O)Cn3nc(C(=O)N4CC[C@H](O)[C@H](F)C4)c4c3C[C@H]3C[C@@H]43)C3(CC3)C2)c1C [Example 317, 1-[7-(4-fluoro-2,3-dimethylphenyl)-4,7-diazaspiro[2.5]octan-4-yl]-2-{(3bR,4aR)-3-[(3R,4S)-3-fluoro-4-hydroxypiperidine-1-carbonyl]-3b,4,4a,5-tetrahydro-1H-cyclopropa[3,4]cyclopenta[1,2-c]pyrazol-1-yl}ethan-1-one]
131 | 1.65 | Cc1c(N2CCN(C(=O)Cn3nc(C(=O)N4CCC(O)CC4)c4c3C[C@H]3C[C@@H]43)CC2)cccc1C(F)(F)F [Example 338, 2-((3bR,4aR)-3-(4-hydroxypiperidine-1-carbonyl)-3b,4,4a,5-tetrahydro-1H-cyclopropa[3,4]cyclopenta[1,2-c]pyrazol-1-yl)-1-(4-(2-methyl-3-(trifluoromethyl)phenyl)piperazin-1-yl)ethanone]
79 | 1.17 | Cc1c(Cl)cccc1N1CCN(C(=O)Cn2nc(C(=O)N3CCN(C(=O)CO)CC3)c3c2C[C@H]2C[C@@H]32)CC1 [Example 352, 1-(4-(3-chloro-2-methylphenyl)piperazin-1-yl)-2-((3bR,4aR)-3-(4-(2-hydroxyacetyl)piperazine-1-carbonyl)-3b,4,4a,5-tetrahydro-1H-cyclopropa[3,4]cyclopenta[1,2-c]pyrazol-1-yl)ethanone]
